Assay results: patent US11142526B2, “Spirocycle compounds and methods of making and using same” (H. Lundbeck A/S, priority 2017, dated 2021)
Like-named read-outs stand apart in the source and are kept apart here. One block for each compound: values may come before it.

What was measured:
MAGL [1] = target: T1, MAGL (Mus musculus (Mouse), UniProt O35678); test: Mouse brain proteomes from inhibitor treated mice (oral gavage, brain MAGL activity 4 h after administration); type: in vivo; settings: 5 mg/kg oral gavage
T1 sequence (O35678 whole entry): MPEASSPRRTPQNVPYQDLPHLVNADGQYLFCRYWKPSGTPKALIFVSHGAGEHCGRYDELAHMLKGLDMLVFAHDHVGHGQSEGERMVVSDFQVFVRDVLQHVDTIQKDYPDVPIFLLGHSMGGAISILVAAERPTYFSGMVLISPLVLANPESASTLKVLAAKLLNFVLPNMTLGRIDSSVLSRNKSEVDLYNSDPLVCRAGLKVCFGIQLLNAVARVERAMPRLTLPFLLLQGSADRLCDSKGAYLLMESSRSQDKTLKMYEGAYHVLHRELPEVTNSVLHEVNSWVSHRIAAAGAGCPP
Protocol: Preparation of Mouse Brain Proteomes from Inhibitor Treated Mice.
Inhibitors were administered to wild-type C57B1/6J by oral gavage in a vehicle of polyethylene glycol.

MAGL [2] = target: T1, MAGL; test: In vitro competitive activity-based protein profiling, mouse brain proteome; type: biochemical; settings: for inhibition at 1 µM: mouse; for IC50: mouse brain
MAGL [3] = target: MAGL (Homo sapiens (Human), UniProt Q99685); test: In vitro competitive activity-based protein profiling (gel-based, FP-Rh or HT-01 probe); type: biochemical
MAGL (Homo sapiens (Human), UniProt Q99685), sequence (Q99685 whole entry): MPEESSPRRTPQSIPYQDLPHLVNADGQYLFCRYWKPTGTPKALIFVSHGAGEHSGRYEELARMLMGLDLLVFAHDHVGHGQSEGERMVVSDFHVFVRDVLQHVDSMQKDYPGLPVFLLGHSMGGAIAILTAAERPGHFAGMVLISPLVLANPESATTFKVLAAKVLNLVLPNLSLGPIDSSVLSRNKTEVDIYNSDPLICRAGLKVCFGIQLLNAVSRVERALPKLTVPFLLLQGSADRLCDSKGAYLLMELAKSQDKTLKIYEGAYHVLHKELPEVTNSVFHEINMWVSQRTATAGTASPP
Protocol: In Vitro Competitive Activity-Based Protein Profiling.
Proteomes (human prefrontal cortex or cell membrane fractions) (50 μL, 1.0 mg/mL total protein concentration) were preincubated with varying concentrations of inhibitors at 37° C. After 30 min, FP-Rh or HT-01 (1.0 μL, 50 μM in DMSO) was added and the mixture was incubated for another 30 min at room temperature. Reactions were quenched with SDS loading buffer (15 μL—4×) and run on SDS-PAGE.

[4] = human PC3, read-out: MAGL % Inhibition at 1 μM (human PC3)
[5] = human PFC (prefrontal cortex), read-out: MAGL % Inhibition at 1 μM (human PFC)
[6] = human PC3, read-out: MAGL Human PC3 (IC50)

inhibition at 1 µM (MAGL [2]): > 75%
inhibition at 1 µM (MAGL [3]; [4]): > 75%
inhibition at 1 µM (MAGL [3]; [5]): > 75%
IC50 (MAGL [3]; [6]): < 100 nM
Compound: CC1(NC(=O)c2nnc3n2CCN(C2CCOCC2)C3)CCN(C(=O)OC(C(F)(F)F)C(F)(F)F)CC1 [Example 209, 1,1,1,3,3,3-Hexafluoropropan-2-yl 4-methyl-4-(7-(tetrahydro-2H-pyran-4-yl)-5,6,7,8-tetrahydro-[1,2,4]triazolo [4,3-a]pyrazine-3-carboxamido) piperidine-1-carboxylate]
MAGL % Inhibition at 5 mg/kg (Mouse) (MAGL [1]): ### (% inhibition is greater than or equal to 75%)

MAGL % Inhibition at 5 mg/kg (Mouse) (MAGL [1]): # (% inhibition less or equal to 25%)
inhibition at 1 µM (MAGL [2]): > 75%
inhibition at 1 µM (MAGL [3]; [4]): > 75%
IC50 (MAGL [3]; [6]): < 100 nM
Compound: CC1(NC(=O)c2cn3c(n2)CN(C(=O)C2(C)CC2)CC3)CCN(C(=O)OC(C(F)(F)F)C(F)(F)F)CC1 [Example 190, 1,1,1,3,3,3-Hexafluoropropan-2-yl 4-methyl-4-(7-(1-methylcyclopropane-1-carbonyl)-5,6,7,8-tetrahydroimidazo[1,2-a]pyrazine-2-carboxamido) piperidine-1-carboxylate]

inhibition at 1 µM (MAGL [2]): > 75%
inhibition at 1 µM (MAGL [3]; [4]): > 75%
inhibition at 1 µM (MAGL [3]; [5]): > 75%
IC50 (MAGL [3]; [6]): < 100 nM
Compound: O=C(OC(C(F)(F)F)C(F)(F)F)N1CCC2(CCCN2C(=O)C2(c3cnc(C4CC4)nc3)CC2)CC1 [Example 38, 1,1,1,3,3,3-Hexafluoropropan-2-yl 1-(1-(2-cyclopropylpyrimidin-5-yl)cyclopropane-1-carbonyl)-1,8-diazaspiro[4.5]decane-8-carboxylate]
MAGL % Inhibition at 5 mg/kg (Mouse) (MAGL [1]): ### (% inhibition is greater than or equal to 75%)

MAGL % Inhibition at 5 mg/kg (Mouse) (MAGL [1]): # (% inhibition less or equal to 25%)
inhibition at 1 µM (MAGL [2]): > 75%
inhibition at 1 µM (MAGL [3]; [4]): > 75%
inhibition at 1 µM (MAGL [3]; [5]): > 75%
IC50 (MAGL [3]; [6]): < 100 nM
Compound: COCC(C)N1CCn2cc(C(=O)N3CCCC34CCN(C(=O)OC(C(F)(F)F)C(F)(F)F)CC4)nc2C1 (stereo not drawn) [Example 169, 1.1,1,3,3,3-Hexafluoropropan-2-yl 1-(7-(1-methoxypropan-2-yl)-5,6,7,8-tetrahydroimidazo [1,2-a]pyrazine-2-carbonyl)-1,8-diazaspiro[4.5] decane-8-carboxylate]

MAGL % Inhibition at 5 mg/kg (Mouse) (MAGL [1]): # (% inhibition less or equal to 25%)
inhibition at 1 µM (MAGL [2]): > 75%
inhibition at 1 µM (MAGL [3]; [4]): > 75%
IC50 (MAGL [3]; [6]): < 100 nM
Compound: CC1(NC(=O)c2cn3c(n2)CN(C(=O)C(C)(C)C)CC3)CCN(C(=O)OC(C(F)(F)F)C(F)(F)F)CC1 [Example 191, 1,1,1,3,3,3-Hexafluoropropan-2-yl 4-methyl-4-(7-pivaloyl-5,6,7,8-tetrahydroimidazo[1,2-a]pyrazine-2-carboxamido) piperidine-1-carboxylate]

MAGL % Inhibition at 5 mg/kg (Mouse) (MAGL [1]): # (% inhibition less or equal to 25%)
inhibition at 1 µM (MAGL [2]): > 75%
inhibition at 1 µM (MAGL [3]; [4]): > 75%
inhibition at 1 µM (MAGL [3]; [5]): > 75%
IC50 (MAGL [3]; [6]): < 100 nM
Compound: CN(C(=O)C1(c2cnccn2)CC1)C1(C)CCN(C(=O)OC(C(F)(F)F)C(F)(F)F)CC1 [Example 176, 1,1,1,3,3,3-Hexafluoropropan-2-yl 4-methyl-4-(N-methyl-1-(pyrazin-2-yl)cyclopropane-1-carboxamido) piperidine-1-carboxylate]

inhibition at 1 µM (MAGL [2]): > 75%
inhibition at 1 µM (MAGL [3]; [5]): > 75%
IC50 (MAGL [3]; [6]): < 100 nM
Compound: Cn1cc(Cl)c(C(=O)N2CCCC23CCN(C(=O)OC(C(F)(F)F)C(F)(F)F)CC3)n1 [Example 120, 1,1,1,3,3,3-Hexafluoropropan-2-yl 1-(4-chloro-1-methyl-1H-pyrazole-3-carbonyl)-1,8-diazaspiro[4.5] decane-8-carboxylate]
MAGL % Inhibition at 5 mg/kg (Mouse) (MAGL [1]): ### (% inhibition is greater than or equal to 75%)

inhibition at 1 µM (MAGL [2]): > 75%
IC50 (MAGL [2]): < 100 nM
IC50 (MAGL [3]; [6]): < 100 nM
Compound: CN(Cc1cc2cc(Cl)ccc2s1)C1(C)CCN(C(=O)OC(C(F)(F)F)C(F)(F)F)CC1 [Example 62, 1,1,1,3,3,3-Hexafluoropropan-2-yl 4-(((5-chlorobenzo[b]thiophen-2-yl)methyl)(methyl)amino)-4-methylpiperidine-1-carboxylate]
MAGL % Inhibition at 5 mg/kg (Mouse) (MAGL [1]): ### (% inhibition is greater than or equal to 75%)

Continued, compound first:

Compound: O=C(OC(C(F)(F)F)C(F)(F)F)N1CCC2(CCCN2C(=O)c2cncnc2N2CCCC2)CC1 [Example 5, 1,1,1,3,3,3-Hexafluoropropan-2-yl 1-(4-(pyrrolidin-1-yl)pyrimidine-5-carbonyl)-1,8-diazaspiro[4.5]decane-8-carboxylate]
MAGL % Inhibition at 5 mg/kg (Mouse) (MAGL [1]): ### (% inhibition is greater than or equal to 75%)
inhibition at 1 µM (MAGL [2]): > 75%
inhibition at 1 µM (MAGL [3]; [5]): > 75%
IC50 (MAGL [3]; [6]): < 100 nM
IC50 (MAGL [3]; human PFC (prefrontal cortex), read-out: MAGL Human PFC (IC50)): < 100 nM

Compound: O=C(OC(C(F)(F)F)C(F)(F)F)N1CCC2(CCCN2Cc2cnc3ccccn23)CC1 [Example 228, 1,1,1,3,3,3-Hexafluoropropan-2-yl 1-(imidazo [1,2-a]pyridin-3-ylmethyl)-1,8-diazaspiro[4.5]decane-8-carboxylate]
MAGL % Inhibition at 5 mg/kg (Mouse) (MAGL [1]): ### (% inhibition is greater than or equal to 75%)
inhibition at 1 µM (MAGL [2]): > 75%
IC50 (MAGL [2]): < 100 nM
IC50 (MAGL [3]; [6]): < 100 nM

Compound: O=C(OC(C(F)(F)F)C(F)(F)F)N1CCC2(CCCN2Cc2ccc3cc(F)ccc3n2)CC1 [Example 56, 1,1,1,3,3,3-Hexafluoropropan-2-yl 1-((6-fluoroquinolin-2-yl)methyl)-1,8-diazaspiro[4.5] decane-8-carboxylate]
MAGL % Inhibition at 5 mg/kg (Mouse) (MAGL [1]): ### (% inhibition is greater than or equal to 75%)
inhibition at 1 µM (MAGL [2]): > 75%
IC50 (MAGL [2]): < 100 nM
IC50 (MAGL [3]; [6]): < 100 nM

Compound: Cc1cc(C)c2[nH]c(C(=O)N3CCCC34CCN(C(=O)OC(C(F)(F)F)C(F)(F)F)CC4)c(C)c2c1 [Example 63, 1,1,1,3,3,3-Hexafluoropropan-2-yl 1-(3,5,7-trimethyl-1H-indole-2-carbonyl)-1,8-diazaspiro[4.5] decane-8-carboxylate]
MAGL % Inhibition at 5 mg/kg (Mouse) (MAGL [1]): ### (% inhibition is greater than or equal to 75%)
inhibition at 1 µM (MAGL [2]): > 75%
IC50 (MAGL [2]): < 100 nM
IC50 (MAGL [3]; [6]): < 100 nM

Compound: Cc1ccc2nc(Cl)c(CN3CCCC34CCN(C(=O)OC(C(F)(F)F)C(F)(F)F)CC4)cc2c1 [Example 49, 1,1,1,3,3,3-Hexafluoropropan-2-yl 1-((2-chloro-6-methylquinolin-3-yl)methyl)-1,8-diazaspiro[4.5] decane-8-carboxylate]
MAGL % Inhibition at 5 mg/kg (Mouse) (MAGL [1]): ### (% inhibition is greater than or equal to 75%)
inhibition at 1 µM (MAGL [2]): > 75%
IC50 (MAGL [2]): < 100 nM
IC50 (MAGL [3]; [6]): < 100 nM

Compound: O=C(OC(C(F)(F)F)C(F)(F)F)N1CCC2(CCCN2C(=O)c2cnn3c2CCCC3)CC1 [Example 148, 1.1,1,3,3,3-Hexafluoropropan-2-yl 1-(4,5,6,7-tetrahydropyrazolo [1,5-a]pyridine-3-carbonyl)-1,8-diazaspiro[4.5] decane-8-carboxylate]
MAGL % Inhibition at 5 mg/kg (Mouse) (MAGL [1]): ### (% inhibition is greater than or equal to 75%)
inhibition at 1 µM (MAGL [2]): > 75%
inhibition at 1 µM (MAGL [3]; [4]): > 75%
inhibition at 1 µM (MAGL [3]; [5]): > 75%
IC50 (MAGL [3]; [6]): < 100 nM

Compound: CC1(NC(=O)c2nnc3n2CCN(C2CC2)C3)CCN(C(=O)OC(C(F)(F)F)C(F)(F)F)CC1 [Example 204, 1,1,1,3,3,3-Hexafluoropropan-2-yl 4-(7-cyclopropyl-5,6,7,8-tetrahydro-[1,2,4]triazolo[4,3-a]pyrazine-3-carboxamido)-4-methylpiperidine-1-carboxylate]
MAGL % Inhibition at 5 mg/kg (Mouse) (MAGL [1]): ### (% inhibition is greater than or equal to 75%)
inhibition at 1 µM (MAGL [2]): > 75%
inhibition at 1 µM (MAGL [3]; [4]): > 75%
inhibition at 1 µM (MAGL [3]; [5]): > 75%
IC50 (MAGL [3]; [6]): < 100 nM

Compound: CN(C(=O)c1nnc2n1CCN(C1CC1)C2)C1(C)CCN(C(=O)OC(C(F)(F)F)C(F)(F)F)CC1 [Example 20, 1,1,1,3,3,3-hexafluoropropan-2-yl 4-(7-cyclopropyl-N-methyl-5,6,7,8-tetrahydro-[1,2,4]triazolo[4,3-a]pyrazine-3-carboxamido)-4-methylpiperidine-1-carboxylate]
MAGL % Inhibition at 5 mg/kg (Mouse) (MAGL [1]): ### (% inhibition is greater than or equal to 75%)
inhibition at 1 µM (MAGL [2]): > 75%
inhibition at 1 µM (MAGL [3]; [4]): > 75%
inhibition at 1 µM (MAGL [3]; [5]): > 75%
IC50 (MAGL [3]; [6]): < 100 nM

Compound: O=C(OC(C(F)(F)F)C(F)(F)F)N1CCC2(CCCN2C(=O)c2cc3nc(Cl)ccn3n2)CC1 [Example 151, 1,1,1,3,3,3-Hexafluoropropan-2-yl 1-(5-chloropyrazolo[1,5-a]pyrimidine-2-carbonyl)-1,8-diazaspiro[4.5] decane-8-carboxylate]
MAGL % Inhibition at 5 mg/kg (Mouse) (MAGL [1]): ## (% inhibition is less than 75% and greater than 25%)
inhibition at 1 µM (MAGL [2]): > 75%
inhibition at 1 µM (MAGL [3]; [4]): > 75%
inhibition at 1 µM (MAGL [3]; [5]): > 75%

Compound: O=C(OC(C(F)(F)F)C(F)(F)F)N1CCC2(CCCN2Cc2cc3cc(Cl)ccc3s2)CC1 [Example 40, 1,1,1,3,3,3-Hexafluoropropan-2-yl 1-((5-chlorobenzo[b]thiophen-2-yl)methyl)-1,8-diazaspiro[4.5] decane-8-carboxylate]
MAGL % Inhibition at 5 mg/kg (Mouse) (MAGL [1]): ### (% inhibition is greater than or equal to 75%)
inhibition at 1 µM (MAGL [2]): > 75%
IC50 (MAGL [2]): < 100 nM
IC50 (MAGL [3]; [6]): < 100 nM

Compound: O=C(OC(C(F)(F)F)C(F)(F)F)N1CCC2(CCCN2C(=O)c2cn3c(n2)CN(C2COC2)CC3)CC1 [Example 161, 1.1,1,3,3,3-Hexafluoropropan-2-yl 1-(7-(oxetan-3-yl)-5,6,7,8-tetrahydroimidazo [1,2-a]pyrazine-2-carbonyl)-1,8-diazaspiro[4.5] decane-8-carboxylate]
MAGL % Inhibition at 5 mg/kg (Mouse) (MAGL [1]): ## (% inhibition is less than 75% and greater than 25%)
inhibition at 1 µM (MAGL [2]): > 75%
inhibition at 1 µM (MAGL [3]; [4]): > 75%
IC50 (MAGL [3]; [6]): < 100 nM
